The source of these data is ChEMBL document CHEMBL6114953, “De novo discovery of cyclic peptide inhibitors of IL-11 signaling” (Bioorg Med Chem, 2025).

The nature of the assay: Inhibition of his-tagged recombinant human IL-11 (22 to 199 residues) expressed in HEK293 cells/biotinylated recombinant human IL-11Ralpha (24 to 370 residues) expressed in HEK293 cells incubated for 1 hr by AlphaLISA assay. In kind it is cell-based. A general note: Alpha assays give light when donor and acceptor beads are brought close together.

The structures appear in SMILES notation. Where a SMILES comes first, the peptide text is derived from it. Bridges are numbered along the chain shown (N, C = ends).

For `CC(=O)NCC(=O)N[C@@H](Cc1c[nH]c2ccccc12)C(=O)N[C@H]1CSSC[C@@H](C(=O)N[C@@H](CC(C)C)C(=O)N[C@@H](CCCNC(=N)N)C(N)=O)NC(=O)[C@H](Cc2c[nH]c3ccccc23)NC(=O)[C@H](C)NC(=O)[C@H](CO)NC(=O)[C@H](Cc2ccc(O)cc2)NC(=O)[C@H](Cc2ccc(O)cc2)NC(=O)CNC(=O)[C@H](CCCCN)NC(=O)[C@H](Cc2c[nH]c3ccccc23)NC1=O` (Ac-GWCWKGYYSAWCLR-NH2; disulfide 3-12), the Ki turned out to be 1100 nM.
As for `CC(=O)N[C@@H](Cc1ccc(O)cc1)C(=O)N[C@@H](Cc1c[nH]c2ccccc12)C(=O)N[C@H]1CSSC[C@@H](C(=O)N[C@@H](Cc2c[nH]c3ccccc23)C(=O)N[C@@H](CCCNC(=N)N)C(N)=O)NC(=O)[C@H](C(C)C)NC(=O)[C@H]([C@@H](C)O)NC(=O)[C@H]([C@@H](C)O)NC(=O)[C@H](Cc2ccc(O)cc2)NC(=O)[C@H](Cc2ccc(O)cc2)NC(=O)[C@H](CC(C)C)NC(=O)[C@H](Cc2c[nH]cn2)NC(=O)[C@H](CO)NC1=O` (Ac-YWCSHLYYTTVCWR-NH2; disulfide 3-12), the Ki stood at 1900 nM.
The figure for `CSCC[C@@H]1NC(=O)[C@H](Cc2c[nH]cn2)NC(=O)[C@H](CO)NC(=O)[C@@H](NC(=O)[C@H](Cc2c[nH]c3ccccc23)NC(=O)[C@H](Cc2ccc(O)cc2)NC(=O)[C@H](Cc2ccccc2)NC(C)=O)CSSC[C@@H](C(=O)N[C@@H](Cc2c[nH]c3ccccc23)C(=O)N[C@@H](CCCNC(=N)N)C(N)=O)NC(=O)[C@H](C(C)C)NC(=O)[C@H]([C@@H](C)O)NC(=O)[C@H]([C@@H](C)O)NC(=O)[C@H](Cc2ccc(O)cc2)NC(=O)[C@H](Cc2ccc(O)cc2)NC1=O` (Ac-FYWCSHMYYTTVCWR-NH2; disulfide 4-13) is 330 nM.
Then `CC(C)C[C@@H]1NC(=O)CNC(=O)[C@H](Cc2ccccc2)NC(=O)[C@H](Cc2c[nH]c3ccccc23)NC(=O)[C@H](CCC(=O)O)NC(=O)[C@H](Cc2c[nH]c3ccccc23)NC(=O)[C@H]([C@@H](C)O)NC(=O)[C@@H]2CCCN2C(=O)[C@H](Cc2c[nH]cn2)NC(=O)[C@@H](NC(=O)[C@H](Cc2ccccc2)NC(=O)[C@H](CCC(=O)O)NC(=O)[C@@H](NC(=O)[C@@H](NC(=O)[C@H](CCC(=O)O)NC(=O)[C@H](C)N)[C@@H](C)O)C(C)C)CSSC[C@@H](C(N)=O)NC1=O` (H-AETVEFCHPTWEWFGLC-NH2; disulfide 7-17), with 2400 nM; and `CSCC[C@@H]1NC(=O)[C@H](Cc2c[nH]cn2)NC(=O)[C@H](CO)NC(=O)[C@@H](NC(C)=O)CSSC[C@@H](C(=O)N[C@@H](Cc2c[nH]c3ccccc23)C(=O)N[C@@H](CCCNC(=N)N)C(N)=O)NC(=O)[C@H](C(C)C)NC(=O)[C@H]([C@@H](C)O)NC(=O)[C@H]([C@@H](C)O)NC(=O)[C@H](Cc2ccc(O)cc2)NC(=O)[C@H](Cc2ccc(O)cc2)NC1=O` (Ac-CSHMYYTTVCWR-NH2; disulfide 1-10), with > 28000 nM.
Then `CSCC[C@@H]1NC(=O)[C@H](Cc2c[nH]cn2)NC(=O)[C@H](CO)NC(=O)[C@@H](NC(=O)[C@H](Cc2c[nH]c3ccccc23)NC(=O)[C@H](Cc2ccc(O)cc2)NC(=O)[C@H](Cc2ccccc2)NC(=O)[C@H](CCC(N)=O)NC(C)=O)CSSC[C@@H](C(=O)N[C@@H](Cc2c[nH]c3ccccc23)C(=O)N[C@@H](CCCNC(=N)N)C(N)=O)NC(=O)[C@H](C(C)C)NC(=O)[C@H]([C@@H](C)O)NC(=O)[C@H]([C@@H](C)O)NC(=O)[C@H](Cc2ccc(O)cc2)NC(=O)[C@H](Cc2ccc(O)cc2)NC1=O` (Ac-QFYWCSHMYYTTVCWR-NH2; disulfide 5-14), with 270 nM.

Usually Ki stands for a measure of affinity in units of concentration, obtained from inhibition or displacement.
